In ChEMBL document CHEMBL1201861, “Genomics of Drug Sensitity in Cancer screening data, Wellcome Trust Sanger Institute”:
Several values for one entry are separate records, joined by “and”; a condition that tells them apart may be missing. Identical values can stand only once. Where a SMILES comes first, the peptide text is derived from it. The star is where a group is joined. Cbz = O=C(OCc1ccccc1)*

Assays:
[1] = test system: ChaGo-K-1; test: cells; type: functional, cell-based; conditions: Homo sapiens;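 note: growth inhibition of ChaGo-K-1 cells, read out with a cell viability assay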
Description: SANGER: Inhibition of human ChaGo-K-1 cell growth in a cell viability assay.

[2] = test system: ESS-1; test: cells; type: functional, cell-based; conditions: Homo sapiens;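 note: growth inhibition of human ESS-1 cells, read out by a cell viability assay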
Description: SANGER: Inhibition of human ESS-1 cell growth in a cell viability assay.

[3] = test system: G-402; test: cells; type: functional, cell-based; conditions: Homo sapiens
Description: SANGER: Inhibition of human G-402 cell growth in a cell viability assay.

[4] = test system: GCT; test: cells; type: functional, cell-based; conditions: Homo sapiens;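 note: GCT cell line proliferation inhibition, read out with a cell viability assay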
Description: SANGER: Inhibition of human GCT cell growth in a cell viability assay.

[5] = test system: GP5d; test: cells; type: functional, cell-based; conditions: Homo sapiens;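 note: growth inhibition of human GP5d cells, read out with a cell viability assay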
Description: SANGER: Inhibition of human GP5d cell growth in a cell viability assay.

[6] = test system: H4; test: cells; type: functional, cell-based; conditions: Homo sapiens
Description: SANGER: Inhibition of human H4 cell growth in a cell viability assay.

[7] = test system: HCT-116; test: cells; type: functional, cell-based; conditions: Homo sapiens
Description: SANGER: Inhibition of human HCT-116 cell growth in a cell viability assay.

[8] = test system: HGC-27; test: cells; type: functional, cell-based; conditions: Homo sapiens;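 note: growth inhibition of human HGC-27 cells, read out in a cell viability assay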
Description: SANGER: Inhibition of human HGC-27 cell growth in a cell viability assay.

[9] = test system: HMV-2 cell line; test: cells; type: functional, cell-based; conditions: Homo sapiens;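 note: growth inhibition of HMV-II cells, read out with a cell viability assay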
Description: SANGER: Inhibition of human HMV-II cell growth in a cell viability assay.

[10] = test system: HO-1-N-1; test: cells; type: functional, cell-based; conditions: Homo sapiens;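 note: growth inhibition of human HO-1-N-1 cells, read out with a cell viability assay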
Description: SANGER: Inhibition of human HO-1-N-1 cell growth in a cell viability assay.

[11] = test system: HPAF-II; test: cells; type: functional, cell-based; conditions: Homo sapiens;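 note: growth inhibition of HPAF-II cells, read out with a cell viability assay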
Description: SANGER: Inhibition of human HPAF-II cell growth in a cell viability assay.

[12] = test system: HSC-2; test: cells; type: functional, cell-based; conditions: Homo sapiens;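 note: growth inhibition of human HSC-2 cells, read out by a cell viability assay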
Description: SANGER: Inhibition of human HSC-2 cell growth in a cell viability assay.

[13] = test system: HT-1376; test: cells; type: functional, cell-based; conditions: Homo sapiens
Description: SANGER: Inhibition of human HT-1376 cell growth in a cell viability assay.

[14] = test system: Huh-7; test: cells; type: functional, cell-based; conditions: Homo sapiens;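 note: HuH-7 cell growth inhibition, read out with a cell viability assay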
Description: SANGER: Inhibition of human HuH-7 cell growth in a cell viability assay.

[15] = test system: KYSE-450; test: cells; type: functional, cell-based; conditions: Homo sapiens;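 note: cell growth inhibition measured by a viability assay in human KYSE-450 cells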
Description: SANGER: Inhibition of human KYSE-450 cell growth in a cell viability assay.

[16] = test system: KYSE-520 cell line; test: cells; type: functional, cell-based; conditions: Homo sapiens;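 note: growth inhibition of human KYSE-520 cells, read out with a viability assay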
Description: SANGER: Inhibition of human KYSE-520 cell growth in a cell viability assay.

[17] = test system: LU-99A; test: cells; type: functional, cell-based; conditions: Homo sapiens;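 note: growth inhibition of LU-99A cells, read out with a cell viability assay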
Description: SANGER: Inhibition of human LU-99A cell growth in a cell viability assay.

[18] = test system: M14; test: cells; type: functional, cell-based; conditions: Homo sapiens;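 note: growth inhibition of M14 cells, read out with a cell viability assay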
Description: SANGER: Inhibition of human M14 cell growth in a cell viability assay.

[19] = test system: MFE-280; test: cells; type: functional, cell-based; conditions: Homo sapiens;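 note: growth inhibition of MFE-280 cells, determined with a cell viability readout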
Description: SANGER: Inhibition of human MFE-280 cell growth in a cell viability assay.

[20] = test system: MKN-45; test: cells; type: functional, cell-based; conditions: Homo sapiens;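 note: growth inhibition of human MKN-45 cells, measured with a cell viability assay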
Description: SANGER: Inhibition of human MKN45 cell growth in a cell viability assay.

[21] = test system: NB12; test: cells; type: functional, cell-based; conditions: Homo sapiens;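 note: growth inhibition of human NB12 cells, read out by a cell viability assay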
Description: SANGER: Inhibition of human NB12 cell growth in a cell viability assay.

[22] = test system: NCI-H1437; test: cells; type: functional, cell-based; conditions: Homo sapiens;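 note: growth inhibition of human NCI-H1437 cells, read out by a cell viability assay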
Description: SANGER: Inhibition of human NCI-H1437 cell growth in a cell viability assay.

[23] = test system: NCI-H1651; test: cells; type: functional, cell-based; conditions: Homo sapiens;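 note: Read-out is a cell viability assay, with IC50 expressing inhibition of NCI-H1651 cell growth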
Description: SANGER: Inhibition of human NCI-H1651 cell growth in a cell viability assay.

[24] = test system: NCI-H1755; test: cells; type: functional, cell-based; conditions: Homo sapiens;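 note: cell viability readout used to measure growth inhibition of NCI-H1755 cells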
Description: SANGER: Inhibition of human NCI-H1755 cell growth in a cell viability assay.

[25] = test system: NCI-H1792; test: cells; type: functional, cell-based; conditions: Homo sapiens;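 note: growth inhibition of human NCI-H1792 cells, read out as cell viability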
Description: SANGER: Inhibition of human NCI-H1792 cell growth in a cell viability assay.

[26] = test system: NCI-H2087; test: cells; type: functional, cell-based; conditions: Homo sapiens;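 note: growth inhibition determined with a cell viability readout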
Description: SANGER: Inhibition of human NCI-H2087 cell growth in a cell viability assay.

[27] = test system: NCI-H2122; test: cells; type: functional, cell-based; conditions: Homo sapiens;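 note: growth inhibition of the cells, read out with a cell viability assay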
Description: SANGER: Inhibition of human NCI-H2122 cell growth in a cell viability assay.

[28] = test system: NCI-H2452; test: cells; type: functional, cell-based; conditions: Homo sapiens;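 note: growth inhibition of NCI-H2452 cells, read out with a cell viability assay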
Description: SANGER: Inhibition of human NCI-H2452 cell growth in a cell viability assay.

[29] = test system: NCI-H28; test: cells; type: functional, cell-based; conditions: Homo sapiens;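 note: growth inhibition of human NCI-H28 cells, read out as cell viability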
Description: SANGER: Inhibition of human NCI-H28 cell growth in a cell viability assay.

[30] = test system: NCI-H460; test: cells; type: functional, cell-based; conditions: Homo sapiens;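 note: cell viability assay scoring growth inhibition of human NCI-H460 cells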
Description: SANGER: Inhibition of human NCI-H460 cell growth in a cell viability assay.

[31] = test system: NCI-H661; test: cells; type: functional, cell-based; conditions: Homo sapiens;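 note: cell viability assay read-out, IC50 being the concentration that inhibits growth of the cells by half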
Description: SANGER: Inhibition of human NCI-H661 cell growth in a cell viability assay.

[32] = test system: RCM-1; test: cells; type: functional, cell-based; conditions: Homo sapiens;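 note: growth inhibition of the RCM-1 line, determined with a cell viability readout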
Description: SANGER: Inhibition of human RCM-1 cell growth in a cell viability assay.

[33] = test system: SCC-9; test: cells; type: functional, cell-based; conditions: Homo sapiens;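 note: Read-out is a cell viability assay, with values giving inhibition of cell growth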
Description: SANGER: Inhibition of human SCC-9 cell growth in a cell viability assay.

[34] = test system: SK-LU-1; test: cells; type: functional, cell-based; conditions: Homo sapiens;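 note: cell viability assay measuring growth inhibition of human SK-LU-1 cells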
Description: SANGER: Inhibition of human SK-LU-1 cell growth in a cell viability assay.

[35] = test system: SK-MEL-28; test: cells; type: functional, cell-based; conditions: Homo sapiens;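 note: growth inhibition of human SK-MEL-28 cells, read out with a cell viability assay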
Description: SANGER: Inhibition of human SK-MEL-28 cell growth in a cell viability assay.

[36] = test system: SK-MES-1; test: cells; type: functional, cell-based; conditions: Homo sapiens;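 note: growth inhibition of human SK-MES-1 cells, read out with a cell viability assay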
Description: SANGER: Inhibition of human SK-MES-1 cell growth in a cell viability assay.

[37] = test system: SKG-IIIa; test: cells; type: functional, cell-based; conditions: Homo sapiens;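 note: cell growth inhibition, read out with a cell viability assay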
Description: SANGER: Inhibition of human SKG-IIIa cell growth in a cell viability assay.

[38] = test system: SW1783; test: cells; type: functional, cell-based; conditions: Homo sapiens
Description: SANGER: Inhibition of human SW1783 cell growth in a cell viability assay.

[39] = test system: SiHa; test: cells; type: functional, cell-based; conditions: Homo sapiens;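 note: Viability-based readout of growth inhibition in SiHa cells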
Description: SANGER: Inhibition of human SiHa cell growth in a cell viability assay.

[40] = test system: T84; test: cells; type: functional, cell-based; conditions: Homo sapiens;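 note: growth inhibition measured with a cell viability readout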
Description: SANGER: Inhibition of human T84 cell growth in a cell viability assay.

[41] = test system: T98G; test: cells; type: functional, cell-based; conditions: Homo sapiens;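 note: growth inhibition of T98G cells, read out by a cell viability assay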
Description: SANGER: Inhibition of human T98G cell growth in a cell viability assay.

[42] = test system: A-427; test: cells; type: functional, cell-based; conditions: Homo sapiens;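 note: growth inhibition of human A-427 cells, read out by a cell viability assay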
Description: SANGER: Inhibition of human A427 cell growth in a cell viability assay.

[43] = test system: BEN; test: cells; type: functional, cell-based; conditions: Homo sapiens;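 note: growth inhibition of the BEN cell line, read out with a cell viability assay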
Description: SANGER: Inhibition of human BEN cell growth in a cell viability assay.

[44] = test system: BXPC-3; test: cells; type: functional, cell-based; conditions: Homo sapiens;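 note: growth inhibition of human BxPC-3 cells, read out by a cell viability assay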
Description: SANGER: Inhibition of human BxPC-3 cell growth in a cell viability assay.

[45] = test system: CAL-33; test: cells; type: functional, cell-based; conditions: Homo sapiens;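 note: growth inhibition of CAL-33 cells, read out with a cell viability assay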
Description: SANGER: Inhibition of human CAL-33 cell growth in a cell viability assay.

[46] = test system: U2OS; test: cells; type: functional, cell-based, U-2-OS; conditions: Homo sapiens;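 note: growth inhibition of human U-2-OS cells, determined with a cell viability assay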
Description: SANGER: Inhibition of human U-2-OS cell growth in a cell viability assay.

[47] = test system: CAPAN-1; test: cells; type: functional, cell-based; conditions: Homo sapiens;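 note: growth suppression of CAPAN-1 cells, read out by a cell viability assay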
Description: SANGER: Inhibition of human CAPAN-1 cell growth in a cell viability assay.

[48] = test system: D-542MG; test: cells; type: functional, cell-based; conditions: Homo sapiens
Description: SANGER: Inhibition of human D-542MG cell growth in a cell viability assay.

[49] = test system: EVSA-T; test: cells; type: functional, cell-based, Homo sapiens;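 note: growth inhibition of EVSA-T cells, read out with a cell viability assay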
Description: SANGER: Inhibition of human EVSA-T cell growth in a cell viability assay.

[50] = test system: L-540; test: cells; type: functional, cell-based, Homo sapiens;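 note: growth inhibition of the human L-540 cell line, read out with a viability assay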
Description: SANGER: Inhibition of human L-540 cell growth in a cell viability assay.

[51] = test system: NCCIT; test: SANGER: Inhibition of human NCCIT cell growth in a cell viability assay.; type: functional, cell-based
[52] = test system: NCI-H2141; test: cells; type: functional, cell-based, Homo sapiens;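 note: growth inhibition of human NCI-H2141 cells, read out with a cell viability assay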
Description: SANGER: Inhibition of human NCI-H2141 cell growth in a cell viability assay.

[53] = test system: NCI-H2171; test: cells; type: functional, cell-based, Homo sapiens;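 note: growth inhibition of human NCI-H2171 cells, read out by a cell viability assay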
Description: SANGER: Inhibition of human NCI-H2171 cell growth in a cell viability assay.

[54] = test system: PF-382; test: cells; type: functional, cell-based, Homo sapiens
Description: SANGER: Inhibition of human PF-382 cell growth in a cell viability assay.

[55] = test system: REH; test: cells; type: functional, cell-based, Homo sapiens;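 note: growth inhibition of REH cells determined with a cell viability read-out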
Description: SANGER: Inhibition of human REH cell growth in a cell viability assay.

[56] = test system: SCLC-21H; test: cells; type: functional, cell-based, Homo sapiens;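 note: growth inhibition of cultured human SCLC-21H cells, read out with a cell viability assay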
Description: SANGER: Inhibition of human SCLC-21H cell growth in a cell viability assay.

[57] = test system: SIG-M5; test: cells; type: functional, cell-based, Homo sapiens;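 note: cell viability assay read-out, measuring how strongly growth of cultured human SIG-M5 cells is inhibited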
Description: SANGER: Inhibition of human SIG-M5 cell growth in a cell viability assay.

[58] = test system: SIMA; test: cells; type: functional, cell-based, Homo sapiens
Description: SANGER: Inhibition of human SIMA cell growth in a cell viability assay.

[59] = test system: TE-15; test: cells; type: functional, cell-based, Homo sapiens
Description: SANGER: Inhibition of human TE-15 cell growth in a cell viability assay.

[60] = test system: TUR; test: cells; type: functional, cell-based, Homo sapiens
Description: SANGER: Inhibition of human TUR cell growth in a cell viability assay.

[61] = test system: CHP-126; test: cells; type: functional, cell-based, Homo sapiens
Description: SANGER: Inhibition of human CHP-126 cell growth in a cell viability assay.

Structure (SMILES): O=C(NCCCNc1nc(Nc2cccc(NC(=O)N3CCCC3)c2)ncc1I)c1cccs1 [BX-795]
- IC50 [1]: > 5000 nM
- IC50 [2]: > 5000 nM
- IC50 [3]: 1470 nM
- IC50 [4]: > 5000 nM
- IC50 [5]: > 5000 nM
- IC50 [6]: 1100 nM
- IC50 [7]: 4990 nM
- IC50 [8]: > 5000 nM
- IC50 [9]: > 5000 nM
- IC50 [10]: 1970 nM
- IC50 [11]: > 5000 nM
- IC50 [12]: > 5000 nM
- IC50 [13]: > 5000 nM
- IC50 [14]: 4820 nM
- IC50 [15]: > 5000 nM
- IC50 [16]: > 5000 nM
- IC50 [17]: > 5000 nM
- IC50 [18]: > 5000 nM
- IC50 [19]: 2570 nM
- IC50 [20]: > 5000 nM
- IC50 [21]: > 5000 nM
- IC50 [22]: 2770 nM
- IC50 [23]: > 5000 nM
- IC50 [24]: 2540 nM
- IC50 [25]: > 5000 nM
- IC50 [26]: > 5000 nM
- IC50 [27]: > 5000 nM
- IC50 [28]: 4830 nM
- IC50 [29]: 2850 nM
- IC50 [30]: 2440 nM
- IC50 [31]: > 5000 nM
- IC50 [32]: > 5000 nM
- IC50 [33]: > 5000 nM
- IC50 [34]: > 5000 nM
- IC50 [35]: > 5000 nM
- IC50 [36]: 2960 nM
- IC50 [37]: > 5000 nM
- IC50 [38]: 3540 nM
- IC50 [39]: > 5000 nM
- IC50 [40]: > 5000 nM
- IC50 [41]: 2390 nM
- IC50 [42]: 1740 nM
- IC50 [43]: > 5000 nM
- IC50 [44]: > 5000 nM
- IC50 [45]: > 5000 nM
- IC50 [46]: 1590 nM
- IC50 [47]: > 5000 nM

Structure (SMILES): Nc1ccccc1NC(=O)c1ccc(CNC(=O)OCc2cccnc2)cc1 [ENTINOSTAT]
- IC50 [48]: 1890 nM
- IC50 ([49]; Homo sapiens, EVSA-T): 1180 nM
- IC50 ([50]; Homo sapiens, L-540): 1110 nM
- IC50 [21]: 318 nM
- IC50 ([51]; Homo sapiens, NCCIT): 386 nM
- IC50 ([52]; Homo sapiens, NCI-H2141): 3170 nM
- IC50 ([53]; Homo sapiens, NCI-H2171): 1350 nM
- IC50 ([54]; Homo sapiens, PF-382): 1120 nM
- IC50 ([55]; Homo sapiens, REH): > 5000 nM
- IC50 ([56]; Homo sapiens, SCLC-21H): 1260 nM
- IC50 ([57]; Homo sapiens, SIG-M5): 578 nM
- IC50 ([58]; Homo sapiens, SIMA): > 5000 nM
- IC50 ([59]; Homo sapiens, TE-15): > 5000 nM
- IC50 ([60]; Homo sapiens, TUR): > 5000 nM
- IC50 ([61]; Homo sapiens, CHP-126): 402 nM

Structure (SMILES): CC(C)C[C@@H](C=O)NC(=O)[C@H](CC(C)C)NC(=O)[C@H](CC(C)C)NC(=O)OCc1ccccc1 [MG-132] (Cbz-Leu-Leu-Leu-aldehyde)
- IC50 [48]: 59.6 nM
- IC50 ([49]; evsa-t): 499 nM and > 1000 nM
- IC50 ([50]; l-540): > 1000 nM
- IC50 [21]: > 1000 nM
- IC50 ([51]; nccit): 318 nM and > 1000 nM
- IC50 ([52]; nci-h2141): > 1000 nM
- IC50 ([53]; nci-h2171): > 1000 nM
- IC50 ([54]; pf-382): 167 nM and 584 nM
- IC50 ([55]; reh): > 1000 nM
- IC50 ([56]; sclc-21h): > 1000 nM
- IC50 ([57]; sig-m5): > 1000 nM
- IC50 ([58]; sima): > 1000 nM
- IC50 ([59]; te-15): > 1000 nM
- IC50 ([60]; tur): > 1000 nM
- IC50 ([61]; chp-126): > 1000 nM

Structure (SMILES): CC1(C)CCC(c2ccc(Cl)cc2)=C(CN2CCN(c3ccc(C(=O)NS(=O)(=O)c4ccc(N[C@H](CCN5CCOCC5)CSc5ccccc5)c(S(=O)(=O)C(F)(F)F)c4)cc3)CC2)C1 [NAVITOCLAX]
- IC50 [1]: > 2000 nM
- IC50 [2]: > 2000 nM
- IC50 [3]: > 2000 nM
- IC50 [4]: > 2000 nM
- IC50 [5]: > 2000 nM
- IC50 [6]: > 2000 nM
- IC50 [7]: > 2000 nM
- IC50 [8]: > 2000 nM
- IC50 [9]: > 2000 nM
- IC50 [10]: > 2000 nM
- IC50 [11]: 926 nM
- IC50 [12]: > 2000 nM
- IC50 [13]: > 2000 nM
- IC50 [14]: 1670 nM
- IC50 [15]: > 2000 nM
- IC50 [16]: > 2000 nM
- IC50 [17]: > 2000 nM
- IC50 [18]: > 2000 nM
- IC50 [19]: > 2000 nM
- IC50 [20]: > 2000 nM
- IC50 [21]: 231 nM
- IC50 [22]: > 2000 nM
- IC50 [23]: > 2000 nM
- IC50 [24]: > 2000 nM
- IC50 [25]: > 2000 nM
- IC50 [26]: > 2000 nM
- IC50 [27]: > 2000 nM
- IC50 [28]: > 2000 nM
- IC50 [29]: > 2000 nM
- IC50 [30]: > 2000 nM
- IC50 [31]: > 2000 nM
- IC50 [32]: > 2000 nM
- IC50 [33]: > 2000 nM
- IC50 [34]: > 2000 nM
- IC50 [35]: > 2000 nM
- IC50 [36]: > 2000 nM
- IC50 [37]: > 2000 nM
- IC50 [38]: > 2000 nM
- IC50 [39]: > 2000 nM
- IC50 [40]: > 2000 nM
- IC50 [41]: > 2000 nM
- IC50 [42]: 930 nM
- IC50 [43]: 240 nM
- IC50 [44]: > 2000 nM
- IC50 [45]: > 2000 nM
- IC50 [46]: > 2000 nM
- IC50 [47]: > 2000 nM
